The text below walks through data of patent publication US20230113037A1 (Bayer Aktiengesellschaft, priority 2019, published 2023).

Like-named read-outs stand apart in the source and are kept apart here.

For experiment [1], the target named is T1, AHR (Homo sapiens, UniProt P35869).
T1 construct: U87 MG glioblastoma cells (ATCC #HTB-14) endogenously expressing AHR; endogenous in cells; host or cells: U87 MG glioblastoma cells (ATCC #HTB-14)
T1 sequence (P35869 11-848): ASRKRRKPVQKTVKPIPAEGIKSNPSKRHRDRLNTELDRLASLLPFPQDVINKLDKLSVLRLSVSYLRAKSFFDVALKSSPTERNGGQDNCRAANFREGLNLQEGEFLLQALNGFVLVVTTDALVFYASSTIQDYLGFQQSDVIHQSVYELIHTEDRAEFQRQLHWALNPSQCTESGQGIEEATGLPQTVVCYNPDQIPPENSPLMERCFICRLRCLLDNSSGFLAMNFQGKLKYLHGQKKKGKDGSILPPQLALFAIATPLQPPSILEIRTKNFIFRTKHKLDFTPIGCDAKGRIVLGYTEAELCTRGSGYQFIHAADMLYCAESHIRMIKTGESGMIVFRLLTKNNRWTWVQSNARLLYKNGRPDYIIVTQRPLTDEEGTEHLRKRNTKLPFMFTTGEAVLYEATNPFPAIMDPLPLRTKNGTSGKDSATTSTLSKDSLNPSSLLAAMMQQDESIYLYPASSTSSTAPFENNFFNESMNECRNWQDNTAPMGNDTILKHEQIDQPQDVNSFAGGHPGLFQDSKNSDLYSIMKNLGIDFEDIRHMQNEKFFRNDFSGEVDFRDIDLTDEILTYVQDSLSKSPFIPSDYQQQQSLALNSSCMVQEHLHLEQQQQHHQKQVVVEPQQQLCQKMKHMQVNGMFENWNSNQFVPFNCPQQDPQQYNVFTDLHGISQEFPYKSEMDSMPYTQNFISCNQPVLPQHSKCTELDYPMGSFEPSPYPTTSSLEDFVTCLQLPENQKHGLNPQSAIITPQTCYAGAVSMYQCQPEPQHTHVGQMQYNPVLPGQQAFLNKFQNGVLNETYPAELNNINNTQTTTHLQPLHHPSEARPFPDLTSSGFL
Briefly: In vitro assay 1: antagonism in human cell line (AHR transactivation, firefly luciferase reporter, kynurenic acid prestimulated). The class given is cell-based. The note with it: AHR Antagonism Human IC50 [M], firefly luciferase reporter. In short, it runs like this:
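Antagonism is measured against kynurenic acid prestimulation in U87 MG glioblastoma cells carrying stable DRE-luciferase and Renilla reporters. Positive inhibition control: 150 μM kynurenic acid with 5 μM staurosporine. Values are normalized to controls; repeats are averaged or given as medians.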
A general note: Reporter assays use an easily measured gene product as a stand-in for the process of interest.

For experiment [2], the target named is T2, AHR (Mus musculus, UniProt P30561).
T2 sequence (P30561 1-848 P471L/N533S/M589L): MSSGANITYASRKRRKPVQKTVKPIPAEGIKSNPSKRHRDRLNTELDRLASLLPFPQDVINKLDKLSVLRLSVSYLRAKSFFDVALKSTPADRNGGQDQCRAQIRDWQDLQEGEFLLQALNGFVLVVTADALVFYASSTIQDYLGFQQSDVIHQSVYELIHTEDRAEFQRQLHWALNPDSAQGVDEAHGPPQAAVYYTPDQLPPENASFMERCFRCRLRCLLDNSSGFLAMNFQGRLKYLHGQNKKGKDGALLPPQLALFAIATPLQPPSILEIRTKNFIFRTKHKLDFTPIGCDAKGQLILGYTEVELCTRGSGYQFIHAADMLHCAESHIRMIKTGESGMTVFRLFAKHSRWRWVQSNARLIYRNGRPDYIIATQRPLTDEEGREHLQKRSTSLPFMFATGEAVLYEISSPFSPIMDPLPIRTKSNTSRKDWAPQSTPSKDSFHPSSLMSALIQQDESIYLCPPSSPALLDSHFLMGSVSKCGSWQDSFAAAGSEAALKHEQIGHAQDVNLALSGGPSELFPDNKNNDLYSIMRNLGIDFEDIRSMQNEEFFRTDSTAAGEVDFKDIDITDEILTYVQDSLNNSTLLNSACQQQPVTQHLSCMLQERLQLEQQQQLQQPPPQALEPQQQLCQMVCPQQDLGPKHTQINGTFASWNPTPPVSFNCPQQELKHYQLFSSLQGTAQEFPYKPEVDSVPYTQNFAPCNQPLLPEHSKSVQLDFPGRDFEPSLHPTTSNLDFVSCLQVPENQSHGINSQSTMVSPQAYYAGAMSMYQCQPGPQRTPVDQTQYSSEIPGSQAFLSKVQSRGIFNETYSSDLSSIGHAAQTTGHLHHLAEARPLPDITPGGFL
The experiment in a line: In vitro assay 3: antagonism in mouse cell line (AHR transactivation, firefly luciferase reporter, kynurenic acid prestimulated). The class given is cell-based. In short, it runs like this:
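Kynurenic acid-prestimulated mouse reporter cells; stable AHR-inducible firefly luc construct with DRE sites in promoter. No-agonist wells = positive inhibition ctrl. Luminescence normalized to pos/neg ctrls; n>1 reported as mean or median.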

Where [3] appears, read: Hepa 1c1c7 cells, 200 μM kynurenic acid, 20 hours, firefly luciferase reporter, read-out: AHR Antagonism Mouse IC50.

Broadly, the IC50 is the midpoint of a concentration-inhibition curve. For `O=C1NCCCC[C@H]1Nc1nc2c(C(F)(F)F)cccc2c2nc(-c3ccc(Cl)cc3)nn12` [Example 833, (3R)-3-{[2-(4-chlorophenyl)-7-(trifluoromethyl)[1,2,4]triazolo[1,5-c]quinazolin-5-yl]amino}azepan-2-one], the IC50 is 1.12e-09 M in experiment [1] and 1.27 nM in experiment [2] (setting [3]).
Consider `CCn1cc(-c2nc3c4cccc(F)c4nc(N[C@@H]4CCCCNC4=O)n3n2)cn1` [Example 834, (3R)-3-{[2-(1-ethyl-1H-pyrazol-4-yl)-7-fluoro[1,2,4]triazolo[1,5-c]quinazolin-5-yl]amino}azepan-2-one], for which the 50% inhibitory concentration (IC50) was 6.25e-09 M in experiment [1] and 10.7 nM in experiment [2] (setting [3]).
On to `Cc1c(-c2nc3c4cccc(F)c4nc(N[C@@H]4CCCCNC4=O)n3n2)cnn1C` [Example 835, (3R)-3-{[2-(1,5-dimethyl-1H-pyrazol-4-yl)-7-fluoro[1,2,4]triazolo[1,5-c]quinaozlin-5-yl]amino}azepan-2-one], for which the half-inhibitory concentration (IC50) in experiment [1] worked out at 1.54e-08 M; in experiment [2] (setting [3]) it was 18.5 nM.
As for `CC(C)n1cc(-c2nc3c4cccc(F)c4nc(N[C@@H]4CCCCNC4=O)n3n2)cn1` [Example 836], the half-maximal inhibitory concentration (IC50) worked out at 4.19e-09 M in experiment [1] and 4.95 nM in experiment [2] (setting [3]).
The like results for `Cn1cc(-c2nc3c4cccc(Br)c4nc(N[C@@H]4CSCCNC4=O)n3n2)cn1` [Example 837, (6S)-6-{[7-bromo-2-(1-methyl-1H-pyrazol-4-yl)[1,2,4]triazolo[1,5-c]quinazolin-5-yl]amino}-1,4-thiazepan-5-one] were, in that order, 7.6e-10 M and 1.81 nM.
With `CC(C)n1cc(-c2nc3c4cccc(C(F)(F)F)c4nc(N[C@@H]4CSCCNC4=O)n3n2)cn1` [Example 838, (6S)-6-({2-[1-(propan-2-yl)-1H-pyrazol-4-yl]-7-(trifluoromethyl)[1,2,4]triaozlo[1,5-c]quinazolin-5-yl}amino)-1,4-thiazepan-5-one], the 50% inhibitory concentration (IC50) in experiment [1] was 9.63e-10 M; in experiment [2] (setting [3]), 2.02 nM.
Take `Cn1cc(-c2nc3c4cccc(Br)c4nc(N[C@H]4CSCCNC4=O)n3n2)cn1` [Example 841, (6R)-6-{[7-bromo-2-(1-methyl-1H-pyrazol-4-yl)[1,2,4]triazolo[1,5-c]quinazolin-5-yl]amino}-1,4-thiazepan-5-one]: the 50% inhibitory concentration (IC50) in experiment [1] stood at 1.82e-09 M; in experiment [2] (setting [3]) it was 3.01 nM.
As to `COc1ccc(-c2nc3c4cccc(S(C)(=O)=O)c4nc(N[C@@H]4CCCCNC4=O)n3n2)cc1` [Example 842, (3R)-3-{[7-(methanesulfonyl)-2-(4-methoxyphenyl)[1,2,4]triazolo[1,5-c]quinazolin-5-yl]amino}azepan-2-one], the IC50 in experiment [1] is 4.03e-10 M; in experiment [2] (setting [3]), 9.92 nM.
Consider `COc1ccc(-c2nc3c4cccc(S(=O)(=O)C(C)C)c4nc(N[C@@H]4CCCCNC4=O)n3n2)cc1` [Example 843, (3R)-3-{[2-(4-methoxyphenyl)-7-(propane-2-sulfonyl)[1,2,4]triazolo[1,5-c]quinazolin-5-yl]amino}azepan-2-one], for which the IC50 in experiment [1] came to 4.46e-09 M; in experiment [2] (setting [3]), 11.1 nM.
For the compound `CCS(=O)(=O)c1cccc2c1nc(N[C@@H]1CCCCNC1=O)n1nc(-c3ccc(OC)cc3)nc21` [Example 844, (3R)-3-{[7-(ethanesulfonyl)-2-(4-methoxyphenyl)[1,2,4]triazolo[1,5-c]quinazolin-5-yl]amino}azepan-2-one], the IC50 in experiment [1] is 1.76e-09 M; in experiment [2] (setting [3]), 10.9 nM.
For the compound `CC(C)S(=O)(=O)c1cccc2c1nc(N[C@@H]1CCCCNC1=O)n1nc(-c3cnn(C)c3)nc21` [Example 845, (3R)-3-{[2-(1-methyl-1H-pyrazol-4-yl)-7-(propane-2-sulfonyl)[1,2,4]triazolo[1,5-c]quinazolin-5-yl]amino}azepan-2-one], the IC50 in experiment [1] was 6.71e-08 M; in experiment [2] (setting [3]), 247 nM.
For the compound `CC(C)n1cc(-c2nc3c4cccc(S(C)(=O)=O)c4nc(N[C@@H]4CCCCNC4=O)n3n2)cn1` [Example 846, (3R)-3-({7-(methanesulfonyl)-2-[1-(propan-2-yl)-1H-pyrazol-4-yl][1,2,4]triazolo[1,5-c]quinazolin-5-yl}amino)azepan-2-one], the concentration for half-maximal inhibition (IC50) is 1.29e-08 M in experiment [1] and 232 nM in experiment [2] (setting [3]).
For `CCn1cc(-c2nc3c4cccc(S(C)(=O)=O)c4nc(N[C@@H]4CCCCNC4=O)n3n2)c(C)n1` [Example 847, (3R)-3-{[2-(1-ethyl-3-methyl-1H-pyrazol-4-yl)-7-(methanesulfonyl)[1,2,4]triazolo[1,5-c]quinazolin-5-yl]amino}azepan-2-one] the same measures were 3.02e-09 M and 60.1 nM.
For the compound `Cn1cc(-c2nc3c4cccc(Br)c4nc(N[C@H]4CS(=O)(=O)CCNC4=O)n3n2)cn1` [Example 848, (6R)-6-{[7-bromo-2-(1-methyl-1H-pyrazol-4-yl)[1,2,4]triazolo[1,5-c]quinazolin-5-yl]amino}-1λ^6,4-thiazepane-1,1,5-trione], the concentration for half-maximal inhibition (IC50) in experiment [1] stood at 1.69e-07 M; in experiment [2] (setting [3]), 197 nM.
Take `COc1ccc(-c2nc3c4cccc(Br)c4nc(N[C@@H]4CS(=O)(=O)CCNC4=O)n3n2)cc1` [Example 851, (6S)-6-{[7-bromo-2-(4-methoxyphenyl)[1,2,4]triazolo[1,5-c]quinazolin-5-yl]amino}-1λ^6,4-thiazepane-1,1,5-trione]: the IC50 in experiment [1] is 9.17e-10 M; in experiment [2] (read-out: AHR Antagonism Mouse IC50, Hepa 1c1c7 cells, 200 μM kynurenic acid, 20 hours, firefly luciferase reporter) it was 1.76 nM.
For `CC(C)n1cc(-c2nc3c4cccc(C(F)(F)F)c4nc(N[C@@H]4CS(=O)(=O)CCNC4=O)n3n2)cn1` [Example 852, (6S)-6-({2-[1-(propan-2-yl)-1H-pyrazol-4-yl]-7-(trifluoromethyl)[1,2,4]triazolo[1,5-c]quinazolin-5-yl}amino)-1λ^6,4-thiazepane-1,1,5-trione], the 50% inhibitory concentration (IC50) in experiment [1] was 8.28e-09 M; in experiment [2] (setting [3]), 66.2 nM.
The like results for `Cn1cc(-c2nc3c4cccc(S(C)(=O)=O)c4nc(N[C@@H]4CCCCNC4=O)n3n2)cn1` [Example 858, (3R)-3-{[7-(methanesulfonyl)-2-(1-methyl-1H-pyrazol-4-yl)[1,2,4]triazolo[1,5-c]quinazolin-5-yl]amino}azepan-2-one] were, in that order, 1.07e-07 M and 1560 nM.
`COc1ccc(-c2nc3c4cccc(C(C)(C)O)c4nc(N[C@@H]4CCCCNC4=O)n3n2)cc1` [Example 859, (3R)-3-{[7-(2-hydroxypropan-2-yl)-2-(4-methoxyphenyl)[1,2,4]triazolo[1,5-c]quinazolin-5-yl]amino}azepan-2-one]: the IC50 in experiment [1] is 4.11e-09 M; in experiment [2] (setting [3]) it was 39.4 nM.
Turning to `COc1ccc(-c2nc3c4cccc(CO)c4nc(N[C@@H]4CCCCNC4=O)n3n2)cc1` [Example 860, (3R)-3-{[7-(hydroxymethyl)-2-(4-methoxyphenyl)[1,2,4]triazolo[1,5-c]quinazolin-5-yl]amino}azepan-2-one], the IC50 in experiment [1] is 9.26e-10 M; in experiment [2] (setting [3]) it was 16 nM.
